Results: publication PMC5851651, “Population-specific design of de-immunized protein biotherapeutics” (PLoS Computational Biology, 2018)

What was measured:
[1] = tested on: DRB1*15:01, DRB1*03:01 and DRB1*07:01; assay: Experimental immunogenicity score: relative HLA binding combined across alleles, weighted by allele frequency; set-up: species or system human; key: allele-frequency-weighted sum of binding, % of control peptide signal; details: for Difference to WT (Experimental Score): per peptide against wild-type counterpart; for Experimental Score: per peptide, weights DRB1*15:01 0.162, DRB1*07:01 0.146, DRB1*03:01 0.143
Description: (§1) To test the designs, we synthesized twenty overlapping 15-mer peptides containing the introduced mutations and their wild-type counterparts. The peptides maximally covered the predicted epitopes around the mutations of all designed constructs that contained one and two mutations (Supplementary S2 Table). The affinity of these peptides to the three HLA alleles was measured at time zero and after 24 hours (Methods, Supplementary S3 and S4 Tables). We linearly combined the measured relative affinity scores across HLA alleles weighted by their allele frequencies for each peptide respectively to produce a score that approximates the overall immunogenicity (Fig 5A). Results are presented for measurements taken at time point zero. […] Overall, the measured and predicted immunogenicity of the tested peptides correlated well with r = 0.76 (CI95 = [0.48, 0.91], t = 4.885, df = 17, p-value = 1.4e-4; Fig 5A). Next, we compared the predicted and measured gain or loss in immunogenicity for the whole region by reconstructing the targeted region using overlapping peptides. The measured relative scores were linearly combined (as previously) and then normalized to the number of overlapping peptides used in the reconstruction (Fig 5B). The difference in the measured scores between the wild type and mutant regions can be thought of as a proxy for gain or loss in immunogenicity and correlated well to the predicted changes (r = 0.86, CI95 = [0.40, 0.97], t = 4.136, df = 6, p-value = 6.1e-3; Fig 5B).
Fig 5 (A) Correlation of experimental and predicted immunogenicity of each peptide. The experimental immunogenicity score of a peptide is defined as the linear combination of the individual experimentally determined relative HLA binding affinity of each HLA allele h ∈ H weighted by the HLA allele frequency. (B) Correlation of experimental and predicted immunogenicity of the whole redesigned region. The summarized immunogenicity score of the whole region is the linear combination of the overlapping peptides used to reconstruct the region, normalized by total number of peptides used. The predicted immunogenicity scores per peptide were computed according to our immunogenicity objective function. The red lines are a fitted linear regression and the red tubes represent their 95-confidence interval.
(§2) In order to experimentally verify our in silico predictions for Factor VIII, we utilized the commercial REVEAL HLA-Peptide binding assay of ProImmune (www.proimmune.com). Peptides were synthesized using the PEPscreen custom library synthesis method, yielding high purity peptides for experimental analysis. HLA-peptide binding was assessed for the three HLA-DRB1 alleles used in this study (DRB1*15:01, DRB1*03:01 and DRB1*07:01). In short, the method compares the affinity of the studied peptide to the affinity of a high-affinity control peptide. Each peptide is then scored for binding to a certain HLA molecule relative to the score of the control peptide and reported as the percentage of the signal generated by the control peptide.

DRB1*15:01 = biological target: T1, DRB1*15:01 (Homo sapiens, UniProt P01903+P01911); assay: REVEAL HLA-Peptide binding assay (ProImmune); details: score relative to high-affinity control peptide, percentage of the control signal
T1 construct: purchased ProImmune
Description: as §1, §2

DRB1*07:01 = DRB1*07:01 (Homo sapiens, UniProt P01903+P01911, A100R/A102G/A103Q/D57E/D86V/E43K/F76Y/K127E/L162R/M171V/P40G/Q125H/Q99D/R33Q/R42Y/R54Q/S133A/S66F/T210M/V115G/Y107V/Y59L/Y89S); assay: REVEAL HLA-Peptide binding assay (ProImmune); details: score relative to high-affinity control peptide, percentage of the control signal
Description: as §1, §2

DRB1*03:01 = biological target: T2, DRB1*03:01 (Homo sapiens, UniProt P01903+P01911, A100K/A102G/A103R/A169T/F55Y/I96L/K41T/L162R/M171V/P40S/Q125H/Q178H/Q39Y/R42S/S66N/T106N/T262R/W38E/Y61H); assay: REVEAL HLA-Peptide binding assay (ProImmune); details: score relative to high-affinity control peptide, percentage of the control signal
T2 construct: purchased ProImmune
Description: as §1, §2

[2] = time 0 (H0), listed as VNSLDPPLFTRYLRI
[3] = time 0 (H0), listed as VNSLDPPLLTRYLRI
[4] = time 0 (H0), listed as VNSLDPPLTTRYLRI
[5] = time 0 (H0), listed as VNSLDPPLYTRYLRI
[6] = time 0 (H0), listed as YTRYLRIHPQSWEHQ

| Sequence | Difference to WT (Experimental Score) ([1]; after 24 hours (H24)) | Experimental Score ([1]; after 24 hours (H24)) | Difference to WT (Experimental Score) ([1]; time 0 (H0)) | Experimental Score ([1]; time 0 (H0)) | DRB1*15:01 (DRB1*15:01; after 24 hours (H24)) | DRB1*15:01 (DRB1*15:01; time 0 (H0)) | DRB1*07:01 (DRB1*07:01; after 24 hours (H24)) | DRB1*07:01 (DRB1*07:01; time 0 (H0)) | DRB1*03:01 (DRB1*03:01; after 24 hours (H24)) | DRB1*03:01 (DRB1*03:01; time 0 (H0)) | other results |
| --- | --- | --- | --- | --- | --- | --- | --- | --- | --- | --- | --- |
| VNSLDPPLFTRYLRI [Design M-1, peptide covering L2321F] | 0.042 | 0.096 | -0.356 | 1.040 | 0.000% | 0.427% | 0.497% | 6.490% | 0.165% | 0.165% | DRB1*15:01 (DRB1*15:01; [2]): 0.4%; DRB1*07:01 (DRB1*07:01; [2]): 6.5%; DRB1*03:01 (DRB1*03:01; [2]): 0.2% |
| VNSLDPPLLTRYLRI [WT-1, wild-type peptide of Factor VIII C2 domain, reference compound] | – | 0.054 | – | 1.396 | 0.000% | 7.274% | 0.370% | 0.810% | 0.000% | 0.697% | DRB1*15:01 (DRB1*15:01; [3]): 7.3%; DRB1*07:01 (DRB1*07:01; [3]): 0.8%; DRB1*03:01 (DRB1*03:01; [3]): 0.7% |
| VNSLDPPLTTRYLRI [Design M-2, peptide covering L2321T] | -0.054 | 0.000 | -1.367 | 0.029 | 0.000% | 0.000% | 0.000% | 0.100% | 0.000% | 0.100% | DRB1*15:01 (DRB1*15:01; [4]): 0%; DRB1*07:01 (DRB1*07:01; [4]): 0.1%; DRB1*03:01 (DRB1*03:01; [4]): 0.1% |
| VNSLDPPLYTRYLRI [Design M-3, peptide covering L2321Y] | 0.077 | 0.131 | -0.871 | 0.526 | 0.000% | 0.000% | 0.900% | 3.600% | 0.000% | 0.000% | DRB1*15:01 (DRB1*15:01; [5]): 0%; DRB1*07:01 (DRB1*07:01; [5]): 3.6%; DRB1*03:01 (DRB1*03:01; [5]): 0% |
| YTRYLRIHPQSWEHQ [Design M-12, peptide covering L2321Y, V2333E] | -7.303 | 6.084 | -8.351 | 9.370 | 0.700% | 3.876% | 40.700% | 59.728% | 0.200% | 0.155% | DRB1*15:01 (DRB1*15:01; [6]): 3.9%; DRB1*07:01 (DRB1*07:01; [6]): 59.7%; DRB1*03:01 (DRB1*03:01; [6]): 0.2% |
